Values joined by “and” are separate entries in the source; they are usually repeats but may differ in a detail not shown here. Identical values can stand only once.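 In this assay, cells in 96-well plates receive the compound at five concentrations for 48 hours. Endpoints are linearly interpolated between the surrounding concentrations. GI50 = concentration required for 50% inhibition of growth.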 Active and inactive are the calls of the source. Cut-off read from the data, not from the text of the source: active = GI50 up to about 1.1 µM and inactive = higher.
Assays:
Assay in all cases: growth of human tumour cells (NCI), 48 h
KM12 = system: KM12
786-0 = system: 786-0
SK-MEL-2 = system: SK-MEL-2
MOLT-4 = system: MOLT-4
NCI-H460 = system: NCI-H460
MDA-N = system: MDA-N
SW-620 = system: SW-620
A549 = system: A549
PC-3 = system: PC-3
HOP-62 = system: HOP-62
K562 = system: K562
SK-OV-3 = system: SK-OV-3
M14 = system: M14
MDA-MB-435 = system: MDA-MB-435
HCT-15 = system: HCT-15
DU-145 = system: DU-145
SR = system: SR
ACHN = system: ACHN
OVCAR-8 = system: OVCAR-8
BT-549 = system: BT-549
NCI/ADR-RES = system: NCI/ADR-RES
SK-MEL-28 = system: SK-MEL-28
COLO 205 = system: COLO 205
OVCAR-5 = system: OVCAR-5
SNB-19 = system: SNB-19
UACC-62 = system: UACC-62
MCF7 = system: MCF7
IGROV-1 = system: IGROV-1
OVCAR-4 = system: OVCAR-4
CCRF-CEM = system: CCRF-CEM
RPMI-8226 = system: RPMI-8226
SNB-75 = system: SNB-75
MDA-MB-231 = system: MDA-MB-231
CAKI-1 = system: CAKI-1
HL-60 = system: HL-60
NCI-H23 = system: NCI-H23
HCT-116 = system: HCT-116
EKVX = system: EKVX
UACC-257 = system: UACC-257
U-251 = system: U-251
HT-29 = system: HT-29
UO-31 = system: UO-31
LOX IMVI = system: LOX IMVI
HCC 2998 = system: HCC 2998
SF-539 = system: SF-539
NCI-H522 = system: NCI-H522
A498 = system: A498
SF-295 = system: SF-295
Malme-3M = system: Malme-3M
OVCAR-3 = system: OVCAR-3
HOP-92 = system: HOP-92
NCI-H226 = system: NCI-H226
SK-MEL-5 = system: SK-MEL-5
SN12C = system: SN12C
RXF 393 = system: RXF 393
T47D = system: T47D
TK-10 = system: TK-10

For `O=c1s[s+]([O-])c2ccccc12` (stereo not drawn), the GI50 (KM12) was > 100 µM (inactive), the GI50 (786-0) was > 100 µM (inactive) and the GI50 (SK-MEL-2) was > 100 µM (inactive). For the same compound, the GI50 (MOLT-4) was > 100 µM (inactive), the GI50 (NCI-H460) was 46.8 µM (inactive) and the GI50 (MDA-N) was > 100 µM (inactive). The GI50 (SW-620) was > 100 µM (inactive), the GI50 (A549) was > 100 µM (inactive) and the GI50 (PC-3) was > 100 µM (inactive). The GI50 (HOP-62) was > 100 µM (inactive), the GI50 (K562) was 45.7 µM (inactive) and the GI50 (SK-OV-3) was > 100 µM (inactive). For the same compound, the GI50 (M14) was > 100 µM (inactive), the GI50 (MDA-MB-435) was > 100 µM (inactive) and the GI50 (HCT-15) was 72.9 µM. The GI50 (DU-145) was > 100 µM (inactive), the GI50 (SR) was > 100 µM (inactive) and the GI50 (ACHN) was > 100 µM (inactive). For the same compound, the GI50 (OVCAR-8) was > 100 µM (inactive), the GI50 (BT-549) was > 100 µM (inactive) and the GI50 (NCI/ADR-RES) was > 100 µM (inactive). For the same compound, the GI50 (SK-MEL-28) was > 100 µM (inactive), the GI50 (COLO 205) was > 100 µM (inactive) and the GI50 (OVCAR-5) was > 100 µM (inactive). The GI50 (SNB-19) was > 100 µM (inactive), the GI50 (UACC-62) was > 100 µM (inactive) and the GI50 (MCF7) was > 100 µM (inactive). The GI50 (IGROV-1) was > 100 µM (inactive), the GI50 (OVCAR-4) was > 100 µM (inactive) and the GI50 (CCRF-CEM) was 61.4 µM (inactive). The GI50 (RPMI-8226) was 62.1 µM (inactive), the GI50 (SNB-75) was > 100 µM (inactive) and the GI50 (MDA-MB-231) was > 100 µM (inactive). For the same compound, the GI50 (CAKI-1) was > 100 µM (inactive), the GI50 (HL-60) was 46.9 µM (inactive) and the GI50 (NCI-H23) was > 100 µM (inactive). For the same compound, the GI50 (HCT-116) was > 100 µM (inactive), the GI50 (EKVX) was > 100 µM (inactive) and the GI50 (UACC-257) was > 100 µM (inactive). The GI50 (U-251) was > 100 µM (inactive), the GI50 (HT-29) was > 100 µM (inactive) and the GI50 (UO-31) was > 100 µM (inactive). For the same compound, the GI50 (LOX IMVI) was 58.3 µM (inactive), the GI50 (HCC 2998) was > 100 µM (inactive) and the GI50 (SF-539) was > 100 µM (inactive). For the same compound, the GI50 (NCI-H522) was 39.4 µM (inactive), the GI50 (A498) was > 100 µM (inactive) and the GI50 (SF-295) was > 100 µM (inactive). The GI50 (Malme-3M) was > 100 µM (inactive), the GI50 (OVCAR-3) was > 100 µM (inactive) and the GI50 (HOP-92) was > 100 µM (inactive). For the same compound, the GI50 (NCI-H226) was > 100 µM (inactive), the GI50 (SK-MEL-5) was > 100 µM (inactive) and the GI50 (SN12C) was > 100 µM (inactive).

`O=C1N/C(=N/N=C\C(O)C(O)C(O)C(O)CO)N/C1=C/c1ccccc1` (stereo not drawn) was tested, and the GI50 (NCI/ADR-RES) was > 100 µM (inactive) and 67 µM (inactive) and the GI50 (UACC-62) was > 100 µM (inactive).

For `COC(=O)C(Cc1ccccc1)NC(=O)C(CNC(=O)OCc1ccccc1)C(=O)OCc1ccccc1` (stereo not drawn), the GI50 (KM12) was > 100 µM (inactive), the GI50 (SK-MEL-2) was > 100 µM (inactive) and 86.5 µM (inactive) and the GI50 (RXF 393) was 13.2 µM (inactive). The GI50 (MDA-N) was > 100 µM (inactive), the GI50 (PC-3) was 58.3 µM (inactive) and the GI50 (T47D) was 79.6 µM (inactive) and 47.8 µM (inactive). For the same compound, the GI50 (K562) was > 100 µM (inactive), the GI50 (SK-OV-3) was 59.7 µM (inactive) and the GI50 (HCT-15) was over 100 µM. For the same compound, the GI50 (DU-145) was > 100 µM (inactive), the GI50 (SR) was > 100 µM (inactive) and 56.1 µM (inactive) and the GI50 (OVCAR-8) was > 100 µM (inactive). For the same compound, the GI50 (BT-549) was > 100 µM (inactive), the GI50 (NCI/ADR-RES) was > 100 µM (inactive) and the GI50 (COLO 205) was 51.1 µM (inactive). The GI50 (OVCAR-5) was > 100 µM (inactive), the GI50 (SNB-19) was > 100 µM (inactive) and the GI50 (MCF7) was 30.2 µM (inactive) and 48.2 µM (inactive). For the same compound, the GI50 (IGROV-1) was 98.4 µM (inactive) and 60.3 µM (inactive), the GI50 (RPMI-8226) was > 100 µM (inactive) and the GI50 (SNB-75) was 42.6 µM (inactive) and 21.8 µM (inactive). For the same compound, the GI50 (MDA-MB-231) was 38.7 µM (inactive) and 23 µM (inactive), the GI50 (CAKI-1) was 48.6 µM (inactive) and 64 µM (inactive) and the GI50 (NCI-H23) was > 100 µM (inactive). For the same compound, the GI50 (HCT-116) was 70.3 µM (inactive) and 71 µM (inactive), the GI50 (U-251) was 31.3 µM (inactive) and 46.7 µM (inactive) and the GI50 (HT-29) was > 100 µM (inactive). For the same compound, the GI50 (UO-31) was > 100 µM (inactive) and 95.5 µM (inactive), the GI50 (HCC 2998) was > 100 µM (inactive) and the GI50 (NCI-H522) was 29.4 µM (inactive) and 32.2 µM (inactive). For the same compound, the GI50 (A498) was > 100 µM (inactive), the GI50 (OVCAR-3) was 36.6 µM (inactive) and 32.3 µM (inactive) and the GI50 (NCI-H226) was 54.8 µM (inactive) and 57.5 µM (inactive). The GI50 (SN12C) was > 100 µM (inactive).

`CC1(C)C(=O)C=CC2(C)C1CC(O)C1(C)C2CCC2(C)C(c3ccoc3)OC(=O)C3OC321` (stereo not drawn) was tested, and the GI50 (KM12) was 14.9 µM (inactive), the GI50 (786-0) was 12.2 µM (inactive) and the GI50 (SK-MEL-2) was 11.8 µM (inactive). The GI50 (MOLT-4) was 5.87 µM (inactive), the GI50 (RXF 393) was 15 µM (inactive) and the GI50 (NCI-H460) was 13.6 µM (inactive). The GI50 (MDA-N) was 18.1 µM (inactive), the GI50 (SW-620) was 19.8 µM (inactive) and the GI50 (A549) was 19.2 µM (inactive). For the same compound, the GI50 (PC-3) was 31.6 µM (inactive), the GI50 (HOP-62) was 24.4 µM (inactive) and the GI50 (K562) was 24.8 µM (inactive). The GI50 (SK-OV-3) was 23.7 µM (inactive), the GI50 (M14) was 32 µM (inactive) and the GI50 (MDA-MB-435) was 23.7 µM (inactive). The GI50 (HCT-15) was 10.6 µM, the GI50 (DU-145) was 16.4 µM (inactive) and the GI50 (ACHN) was 14.1 µM (inactive). For the same compound, the GI50 (OVCAR-8) was 13.3 µM (inactive), the GI50 (BT-549) was 18.7 µM (inactive) and the GI50 (NCI/ADR-RES) was 14.4 µM (inactive). For the same compound, the GI50 (SK-MEL-28) was 24.8 µM (inactive), the GI50 (COLO 205) was 21.5 µM (inactive) and the GI50 (TK-10) was 16 µM (inactive). For the same compound, the GI50 (OVCAR-5) was 32.3 µM (inactive), the GI50 (SNB-19) was 18.9 µM (inactive) and the GI50 (UACC-62) was 12.6 µM (inactive). For the same compound, the GI50 (MCF7) was 28.8 µM (inactive), the GI50 (IGROV-1) was 14.3 µM (inactive) and the GI50 (OVCAR-4) was 15 µM (inactive). For the same compound, the GI50 (CCRF-CEM) was 23.1 µM (inactive), the GI50 (RPMI-8226) was 18.5 µM (inactive) and the GI50 (SNB-75) was 15.9 µM (inactive). The GI50 (MDA-MB-231) was 15.8 µM (inactive), the GI50 (CAKI-1) was 11.7 µM (inactive) and the GI50 (NCI-H23) was 12.1 µM (inactive). For the same compound, the GI50 (HCT-116) was 15.3 µM (inactive), the GI50 (EKVX) was 12.5 µM (inactive) and the GI50 (UACC-257) was > 10 µM (inactive). For the same compound, the GI50 (U-251) was 17.4 µM (inactive), the GI50 (HT-29) was 17.1 µM (inactive) and the GI50 (UO-31) was 11.4 µM (inactive). The GI50 (LOX IMVI) was 15.7 µM (inactive), the GI50 (HCC 2998) was 13.4 µM (inactive) and the GI50 (SF-539) was > 10 µM (inactive). The GI50 (NCI-H522) was 11.5 µM (inactive), the GI50 (A498) was 15.3 µM (inactive) and the GI50 (SF-295) was 20 µM (inactive). For the same compound, the GI50 (OVCAR-3) was 13.9 µM (inactive), the GI50 (HOP-92) was 16.4 µM (inactive) and the GI50 (NCI-H226) was 14.2 µM (inactive). The GI50 (SK-MEL-5) was 6.43 µM (inactive) and the GI50 (SN12C) was 18.7 µM (inactive).

Reference: ChEMBL document CHEMBL1201862, “PubChem BioAssay data set” (2004)
